Each structure is given as a SMILES string.

This test addresses T1, Sodium- and chloride-dependent glycine transporter 1 (Homo sapiens, UniProt P48067).
T1 sequence (P48067 whole entry): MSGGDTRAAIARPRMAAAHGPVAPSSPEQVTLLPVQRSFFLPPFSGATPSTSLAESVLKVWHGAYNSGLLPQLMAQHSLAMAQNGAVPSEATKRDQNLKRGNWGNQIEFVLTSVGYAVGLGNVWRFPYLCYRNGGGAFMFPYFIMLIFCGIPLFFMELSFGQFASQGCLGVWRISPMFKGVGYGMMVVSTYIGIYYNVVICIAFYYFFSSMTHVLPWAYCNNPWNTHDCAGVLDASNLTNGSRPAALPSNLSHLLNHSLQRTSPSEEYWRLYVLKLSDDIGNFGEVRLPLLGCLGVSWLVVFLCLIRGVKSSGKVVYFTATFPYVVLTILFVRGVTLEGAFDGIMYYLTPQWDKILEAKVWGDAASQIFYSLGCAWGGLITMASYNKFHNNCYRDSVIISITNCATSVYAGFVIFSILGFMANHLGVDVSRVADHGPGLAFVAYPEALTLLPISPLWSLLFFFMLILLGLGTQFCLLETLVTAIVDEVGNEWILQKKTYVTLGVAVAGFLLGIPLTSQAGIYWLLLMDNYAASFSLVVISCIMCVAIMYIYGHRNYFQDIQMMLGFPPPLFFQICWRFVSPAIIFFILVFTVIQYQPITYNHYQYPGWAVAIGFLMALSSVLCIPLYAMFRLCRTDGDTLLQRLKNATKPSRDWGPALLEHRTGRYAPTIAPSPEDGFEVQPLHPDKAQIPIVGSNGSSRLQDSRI
Briefly: Displacement of [3H](R)-NPTS or [3H]N-methyl-SSR504734 from recombinant human glycine transporter type-1 isoform C expressed in CHO cell membrane incubated for 1 hr by liquid scintillation spectrometry. The class given is cell membranes. Background: Displacement assays read how much labelled ligand stays bound in the presence of the test substance.
In general, Ki refers to a dissociation constant, usually derived from enzyme kinetics or from competition with a known ligand. `Cn1cc(S(=O)(=O)N2CC(c3ccc(F)cc3)C(c3cccc(C(F)(F)F)c3)=N2)nn1` (stereo not drawn): the inhibition constant Ki was no more than 10 µM.

Consider `Cn1cnc(S(=O)(=O)N2CC(c3ccc(Cl)cc3)C(c3ccccc3)=N2)c1` (stereo not drawn), for which the Ki is no more than 1 µM.

On to `Cn1cc(S(=O)(=O)N2CC(c3ccccc3)C(c3ccccn3)=N2)cn1` (stereo not drawn), for which the Ki is no less than 10 µM.
